Laboratory results as given in PubChem BioAssay (NCI).
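Following 48 hours of exposure in 96-well plates, responses at five concentrations were used to interpolate endpoints linearly. GI50 marks 50% less growth. The concentration for full growth arrest is given as TGI.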

Tests used:
Assay in all cases: DTP human tumour cell line panel, 48 h
[1] = test system: SN12C renal
[2] = test system: HCT-116 colon
[3] = test system: NCI-H226 lung
[4] = test system: OVCAR-3 ovarian
[5] = test system: A498 renal
[6] = test system: SF-295 CNS
[7] = test system: SK-MEL-5 melanoma
[8] = test system: HCC-2998 colon
[9] = test system: OVCAR-5 ovarian
[10] = test system: PC-3 prostate

NS(=O)(=O)c1ccc(NC(=O)c2cccn3c(=O)c4ccccc4nc23)cc1
TGI [1]: > 100 µM | TGI [2]: > 100 µM | TGI [3]: > 100 µM | TGI [4]: > 100 µM | TGI [5]: > 100 µM | TGI [6]: > 100 µM | TGI [7]: > 100 µM

C[N+](C)=c1nc(N2CCOCC2)ss1
TGI [1]: > 100 µM | TGI [2]: > 100 µM | TGI [3]: > 100 µM | TGI [5]: > 100 µM | TGI [8]: > 100 µM | TGI [6]: > 100 µM | TGI [9]: > 100 µM | TGI [7]: > 100 µM

O=C(/C=C/c1cn(-c2ccccc2)nc1-c1ccc([N+](=O)[O-])cc1)c1ccc(Cl)cc1
GI50 [1]: 4.54 µM | TGI [1]: > 100 µM | GI50 [2]: 2.42 µM | TGI [2]: > 100 µM | TGI [3]: > 100 µM | GI50 [5]: 4.99 µM | TGI [5]: > 100 µM | GI50 [8]: > 100 µM | TGI [8]: > 100 µM | GI50 [6]: 2.68 µM | TGI [6]: 12.3 µM | GI50 [9]: > 100 µM | TGI [9]: > 100 µM | TGI [7]: > 100 µM

CC(=O)OCCC(O[Si](c1ccccc1)(c1ccccc1)C(C)(C)C)C(C)(C)O (stereo not given)
TGI [1]: 34.2 µM | TGI [2]: 31.2 µM | TGI [3]: 36 µM | TGI [4]: 62.2 µM | TGI [5]: > 100 µM | TGI [6]: 45.6 µM | TGI [9]: > 100 µM | TGI [7]: > 100 µM

O=C(O)[C@@H]1CCCC[C@@H]1C(=O)N(C1CCCCC1)C1CCCCC1
TGI [1]: > 100 µM | TGI [2]: > 100 µM | TGI [3]: > 100 µM | TGI [4]: > 100 µM | TGI [5]: > 100 µM | TGI [8]: > 100 µM | TGI [6]: > 100 µM | TGI [9]: > 100 µM | TGI [7]: > 100 µM

COc1ccc(-c2nc3c(c(=O)n2C(C)=O)C(c2ccc(Cl)cc2)c2sc4c(Cl)cccc4c2O3)cc1 (stereo not given)
GI50 [1]: 0.64 µM | TGI [1]: 2.23 µM | GI50 [2]: 0.341 µM | TGI [2]: 1.38 µM | GI50 [3]: 0.329 µM | TGI [3]: 2.24 µM | GI50 [4]: 0.383 µM | TGI [4]: 1.85 µM | GI50 [8]: 0.68 µM | TGI [8]: 2.48 µM | GI50 [6]: 0.256 µM | TGI [6]: 1.27 µM | GI50 [9]: 1.2 µM | TGI [9]: 3.4 µM | GI50 [10]: 0.337 µM | TGI [10]: 2.39 µM | GI50 [7]: 0.297 µM | TGI [7]: 1.11 µM

O=C(Nc1ccc(Cl)cc1)Nc1ccccc1CNc1nc(Nc2ccc(OCCN3CCCC3)cc2)ncc1Cl
GI50 [1]: 0.913 µM | TGI [1]: 1.74 µM | GI50 [2]: 0.927 µM | TGI [2]: 1.85 µM | GI50 [4]: 0.935 µM | TGI [4]: 1.71 µM | GI50 [5]: 5.22 µM | TGI [5]: 12.3 µM | GI50 [8]: 1.22 µM | TGI [8]: 3.38 µM | GI50 [6]: 7.65 µM | TGI [6]: 14.6 µM | GI50 [9]: 1.1 µM | TGI [9]: 2.7 µM | GI50 [10]: 1.07 µM | TGI [10]: 2.35 µM | GI50 [7]: 0.845 µM | TGI [7]: 1.53 µM

O=[N+]([O-])C1C2C=CC(C2)[C@H]1c1ccc(Cl)cc1Cl (stereo not given in full)
TGI [1]: > 100 µM | TGI [2]: > 100 µM | TGI [3]: > 100 µM | TGI [5]: > 100 µM | TGI [8]: > 100 µM | TGI [6]: > 100 µM | TGI [9]: > 100 µM | TGI [7]: 24.7 µM

CC12OC(C(=O)C13CCC3)C1C(=O)c3ccccc3C(=O)C12 (stereo not given)
GI50 [1]: 76.7 µM | TGI [1]: > 100 µM | GI50 [2]: > 100 µM | TGI [2]: > 100 µM | GI50 [3]: 38.4 µM | TGI [3]: > 100 µM | GI50 [9]: > 100 µM | TGI [9]: > 100 µM | GI50 [10]: 70.7 µM | TGI [10]: > 100 µM

CN(C)CCCC1(c2ccc(F)cc2)OCc2cc(-c3cncc4ccccc34)ccc21 (stereo not given)
GI50 [1]: 4.05 µM | TGI [1]: 17 µM | GI50 [2]: 2.94 µM | TGI [2]: 11 µM | GI50 [3]: 8.65 µM | TGI [3]: 27 µM | GI50 [4]: 2.94 µM | TGI [4]: 9.88 µM | GI50 [8]: 1.84 µM | TGI [8]: 3.71 µM | GI50 [6]: 2.02 µM | TGI [6]: 4.2 µM | GI50 [9]: 5.23 µM | TGI [9]: 18.3 µM | GI50 [10]: 3.36 µM | TGI [10]: 15 µM | GI50 [7]: 1.77 µM | TGI [7]: 3.2 µM

CC(c1ccccc1)N1CC(C)(c2ccccc2)N(O)C(c2ccccc2)C1C (stereo not given)
TGI [2]: 11.6 µM | TGI [4]: 40.8 µM | TGI [5]: 85.3 µM | TGI [8]: 36.9 µM | TGI [6]: 37.5 µM | TGI [9]: > 100 µM

COc1cc2cccc(N=Cc3c(Br)ccc(OC)c3OC(C)C)c2cc1OC
TGI [1]: > 100 µM | TGI [2]: 96 µM | TGI [4]: > 100 µM | TGI [5]: > 100 µM | TGI [8]: > 100 µM | TGI [6]: > 100 µM | TGI [9]: > 100 µM | TGI [7]: > 100 µM

c1ccc(NC[Si]23OCCN(CCO2)CCO3)cc1
TGI [1]: > 100 µM | TGI [2]: > 100 µM | TGI [3]: > 100 µM | TGI [4]: > 100 µM | TGI [5]: > 100 µM | TGI [8]: > 100 µM | TGI [6]: > 100 µM | TGI [9]: > 100 µM | TGI [7]: > 100 µM

COc1ccc(NC(=O)c2sc3nc4c(cc3c2N)CCCC4)cc1
GI50 [1]: 1.43 µM | TGI [1]: > 100 µM | GI50 [2]: 0.355 µM | TGI [2]: 11 µM | GI50 [4]: 0.336 µM | TGI [4]: 3.19 µM | GI50 [5]: 0.237 µM | TGI [5]: 1.73 µM | GI50 [8]: 3.6 µM | TGI [8]: > 100 µM | GI50 [6]: 0.314 µM | TGI [6]: 20.2 µM | GI50 [9]: 7.28 µM | TGI [9]: > 100 µM | GI50 [10]: 0.822 µM | TGI [10]: > 100 µM | GI50 [7]: 0.355 µM | TGI [7]: 11 µM

COc1ccc(C2NCCc3c2[nH]c2ccccc32)cc1 (stereo not given)
TGI [1]: > 100 µM | TGI [2]: > 100 µM | TGI [3]: > 100 µM | TGI [4]: > 100 µM | TGI [8]: 65.1 µM | TGI [6]: > 100 µM | TGI [9]: > 100 µM | TGI [7]: 66.1 µM

CC(C)(C)[Si](C)(C)OCC1OC(n2cnc3c(N)ncnc32)C(O)C1O (stereo not given)
TGI [1]: > 100 µM | TGI [2]: > 100 µM | TGI [3]: > 100 µM | TGI [4]: > 100 µM | TGI [6]: > 100 µM | TGI [9]: > 100 µM | TGI [10]: > 100 µM | TGI [7]: 89.5 µM

Cc1cc(=O)oc2cc(OCCn3c(C)nn(-c4ccc(Cl)cc4)c3=O)ccc12
GI50 [1]: 5.54 µM | TGI [1]: > 100 µM | GI50 [2]: 3.57 µM | TGI [2]: > 100 µM | GI50 [4]: 3.25 µM | TGI [4]: 15.2 µM | GI50 [5]: 1.13 µM | TGI [5]: 31.9 µM | GI50 [8]: 3.59 µM | TGI [8]: > 100 µM | GI50 [6]: 4.73 µM | TGI [6]: > 100 µM | GI50 [9]: 21.9 µM | TGI [9]: > 100 µM | GI50 [10]: 8.13 µM | TGI [10]: > 100 µM | GI50 [7]: 0.848 µM | TGI [7]: > 100 µM

C=CC1=CC(C)C[C@]1(O)C(=O)OC (stereo not given in full)
GI50 [1]: > 100 µM | GI50 [2]: > 100 µM | GI50 [3]: > 100 µM | GI50 [4]: > 100 µM | GI50 [5]: > 100 µM | GI50 [8]: > 100 µM | GI50 [6]: > 100 µM | GI50 [9]: > 100 µM | TGI [7]: > 100 µM

COc1ccc2[nH]c3c(=O)[nH]ncc3c2c1
TGI [2]: > 100 µM | TGI [3]: > 100 µM | TGI [4]: > 100 µM | TGI [5]: > 100 µM | TGI [8]: > 100 µM | TGI [6]: > 100 µM | TGI [9]: > 100 µM | TGI [7]: > 100 µM
